Here are results for 3 compounds from US20160346304A1, “AGENT FOR SUSTAINING SATIETY AND METHOD FOR SUSTAINING SATIETY” (JICHI MEDICAL UNIVERSITY, priority 2014, published 2016).

In series [1] the test system is C57BL/6J male mice. Description: Food intake in fasted mice after oral gavage or intraperitoneal administration. It is filed as in vivo. To be noted: for cumulative food intake (energy (kcal)): comparative example, incl. energy of administered sugar; for cumulative food intake (relative value (%)): mice fasted 16 hours. Here is the method: As the experimental animal, C57BL/6J male mice were used. The mice were acclimated to the environment by preliminary rearing for 1 week or more in individual cages. After fasting the mice for 16 hours from 18:00 p.m. on the previous day of the experiment, each test solution was orally administered by gavage or intraperitoneally administered to the mice. In each administration route, physiological saline (10 mL/kg) was administered in a control group, and D-psicose (0.3 g/kg, 1 g/kg, or 3 g/kg) was administered in a test group. The concentration of the respective test solutions at this time was […], 10%, and 30%, respectively. Each solution was administered at 9:45 a.m., and from 10:00 a.m., the mice were allowed free access to CE-2 feed (a standard mouse feed with a good nutritional balance manufactured by CLEA Japan, Inc.), and the food intake was measured over time after 0.5 hours, 1 hour, 2 hours, 3 hours, 6 hours, and 24 hours.
Incidentally, as a comparative example, an experiment of oral administration by gavage of D-glucose (1 g/kg and 3 g/kg), which has a sweetness equivalent to D-psicose and has a similar structure, but is metabolized to contribute to energy production, was performed in the same manner.
The results obtained by plotting the elapsed time after administration on the abscissa, and the cumulative food intake (relative value (%)) at each elapsed time on the ordinate are shown in FIG. 1 (oral administration by gavage) and FIG. 2 (intraperitoneal administration). Incidentally, the cumulative food intake (relative value (%)) is expressed as the ratio of the cumulative food intake in each group with the average food intake in the physiological saline group at each time in each experiment performed taken as 100%. The obtained results are expressed as a mean and a standard error. A statistical test was performed by a one-way analysis of variance, and if a significant difference was detected, a Dunnett's test in comparison with the control group was performed. The significance level for the test was set to less than 5% on both sides, and the data was marked with * when the P value was less than 5%, and the data was marked with ** when the P value was less than 1%.
The cumulative food intake (energy (kcal)) after D-glucose (1 g/kg and 3 g/kg) was orally administered by gavage in the comparative example is shown in FIG. 3. […] The notation of the results and the statistical analysis is the same as in FIGS. 1 and 2.

Series [2] deals with C57BL/6J male mice. The series is described as follows: Conditioned taste aversion test (preference to saccharin solution). To be noted: conditioning on day 6, test on day 8. It is filed as in vivo. As for the experimental part: As the experimental animal, C57BL/6J male mice which were the same as used in the previous experiment were used. The mice reared in individual cages were given two bottles of water only for 2 hours in a period between 10:00 a.m. and 12:00 p.m. for 5 days, whereby the mice were acclimated to the water restriction schedule. On day 6, a 0.15% saccharin solution was presented for 30 minutes, and thereafter, lithium chloride (3 mmol/kg) was intraperitoneally administered, whereby the mice were made to acquire an aversion to the taste of the saccharin solution (conditioning). In the same manner, a control group in which physiological saline (10 mL/kg) was orally administered and a test group in which D-psicose (1 g/kg or 3 g/kg) was orally administered were prepared. On day 7 serving as a rest day, the above-described water restriction schedule was performed. On day 8 serving as a test day, two bottles, one bottle containing a 0.15% saccharin solution and the other bottle containing water, were simultaneously presented for 30 minutes, and the ratio of preference to the saccharin solution (the intake amount of saccharin/the total intake amount from the two bottles) was determined.
The ratio of preference to the saccharin solution after making the mice to acquire a conditioned taste aversion is shown in FIG. 4. The obtained results are expressed as a mean and a standard error. A statistical test was performed by a one-way analysis of variance, and a Dunnett's test in comparison with the control group was performed. The data was marked with ** when the P value was less than 1%.

The next series relates to c-Fos. Description: c-Fos expression (marker of neuronal activation) by immunostaining in nodose ganglion and medullary nucleus tractus solitarius. It is filed as in vivo, mice. To be noted: oral gavage 1 g/kg, fasted overnight, compared with physiological saline group. Here is the method:
The activation of “vagal afferent nuron” and “medullary nucleus tractus solitarius”, which is a projection site of the vagal afferent nerves, caused by the oral administration of D-psicose was analyzed based on the expression level of c-Fos, which is a marker of neuronal activation, using an immunostaining method. The c-Fos is a kind of immediate early gene and is an intranuclear protein whose expression level increases with the activation of a nerve and can be utilized as a marker of neuronal activation. The cell bodies of the vagal afferent neurons are all localized in the nodose ganglion, and these vagal afferent neurons are bipolar which project to the peripheral side (many internal organs such as heart, lung, gastrointestinal tract, pancreas, and liver) and the central side (medullary nucleus tractus solitarius).
As the experimental animal, C57BL/6J male mice were used. The mice were acclimated to the environment by preliminary rearing and handling for 1 week or more in individual cages. After fasting the mice overnight, D-psicose (1 g/kg) was orally administered by gavage. […]
The results of the expression level of c-Fos in the nodose ganglion and in the medullary nucleus tractus solitarius in the mice after orally administering D-psicose are shown in FIG. 5. The obtained results are expressed as a mean and a standard error. […]

Series [3] has as its system C57BL/6J male mice. The series is described as follows: Liquid food intake in sham-operated and subdiaphragmatic vagotomized mice. The following applies: oral gavage 1 g/kg. It is filed as in vivo. As for the experimental part: As the experimental animal, C57BL/6J male mice were used. The mice were divided into the following two groups: a sham-operated group consisting of sham-operated mice; and a subdiaphragmatic vagotomized group consisting of subdiaphragmatic vagotomized mice, and were subjected to the operation, respectively. After a recovery period of one week, the mice were fasted overnight (for 16 hours) on the previous day of the experiment of food intake. Thereafter, each test solution was orally administered by gavage to the mice, and the intake of a liquid food (milk for babies and toddlers) after the administration was examined. As the respective test solutions administered, in both of the sham-operated group and the subdiaphragmatic vagotomized group, physiological saline (10 mL/kg) or D-psicose (1 g/kg) was orally administered by gavage. The concentration of the D-psicose solution at this time was 10%. Each test solution was orally administered by gavage to mice at 9:45 a.m., and from 10:00 a.m., the mice were allowed free access to the liquid food, and the food intake was measured over time.
The cumulative liquid food intake after orally administering D-psicose (1 g/kg) by gavage to the subdiaphragmatic vagotomized mice and the sham-operated mice is shown in FIG. 6. […] The obtained results are expressed as a mean and a standard error. […]

Another series has as its system healthy subjects. Description: Satiety, hunger and appetite questionnaire (VAS) after breakfast in healthy human subjects. The following applies: humans. It is filed as in vivo. As for the experimental part: Therefore, in this test, after fasting the subjects from 12 hours before the test day, the subjects were made to ingest either of the test solutions (150 mL) prepared to have the same degree of sweetness by adding 5 g of D-psicose or 10 mg of aspartame which is a high intensity sweetener as a control food. Incidentally, the concentration of the respective test solutions was 3.3% in the D-psicose group and 0.005% in the aspartame group. Further, the ingestion amount of D-psicose of the subjects was 0.071 to 0.096 g (mean: 0.085 g) per kilogram of body weight. After the ingestion, breakfast (sandwich, yogurt, and juice) (total calories: 405 kcal, proteins: 10.2%, fats: 28.4%, carbohydrates: 61.4%) was ingested in 10 minutes. During the test, the subjects were fasted except that they were allowed to free access to only prescribed water.
The questionnaire with respect to appetite was filled out by the evaluation using the VAS (Visual Analog Scale) method and was prepared according to NPL 11. As the questionnaire items, the following three items: satiety, hunger, and appetite were set. In each item, the subjects were made to put a mark on a line with a length of 100 mm at a position most close to the state at that moment, then, the length from the left end to the position where the mark was put was measured with a ruler and converted into a numerical value. The obtained results are expressed as a mean and a standard error. A statistical test was performed using an unpaired Student's t test, and the data was marked with * when the P value was less than 5%, the data was marked with ** when the P value was less than 1%, and the data was marked with *** when the P value was less than 0.1%.

The nature of series [4]: Onset and duration of satiety after ingestion of the agent. It is filed as in vivo.
For series [5] the following is noted: cited from earlier work.
For series [6] the following is noted: as compared with D-glucose and D-fructose (NPL 9); cited from earlier work.
[7] abbreviates: oral administration by gavage, 1 g/kg.
Setting [8] is: oral administration by gavage, 3 g/kg.
The mark [9] stands for this setting: 5 g in 150 mL before breakfast, in comparison with control food (aspartame).

Each structure is given as a SMILES string.

With `O=C[C@H](O)[C@@H](O)[C@H](O)[C@H](O)CO` [D-glucose, reference compound], the “cumulative food intake (energy (kcal))” value in the series on C57BL/6J male mice [1] (setting [7]) and with C57BL/6J male mice [1] (setting [8]) was “did not affect food intake” throughout.
Consider `O=C(CO)[C@H](O)[C@H](O)[C@H](O)CO` [D-psicose], for which the “cumulative food intake (relative value (%))” value is reported as “no effect on food intake” in the series with C57BL/6J male mice [1] (intraperitoneal administration, 1 g/kg); “significantly decreased” in the series with C57BL/6J male mice [1] (intraperitoneal administration, 3 g/kg, 0.5 to 6 hours after administration); “a change in food intake was not observed” in the series with C57BL/6J male mice [1] (oral administration by gavage, 0.3 g/kg, any time zone after administration); “significantly decreased” in the series on C57BL/6J male mice [1] (oral administration by gavage, 1 g/kg, 0.5 to 6 hours after administration); “significantly decreased” with C57BL/6J male mice [1] (oral administration by gavage, 3 g/kg, 0.5 to 6 hours after administration). The “effective amount to reduce food intake in mice” value with C57BL/6J male mice [1] (oral administration by gavage, mice) worked out at 1 g/kg. The “ratio of preference to the saccharin solution” value with C57BL/6J male mice [2] (setting [7]) and with C57BL/6J male mice [2] (setting [8]) was “did not affect the preference to the saccharin solution” each time. Further, the “expression level of c-Fos in the medullary nucleus tractus solitarius” value in the series on c-Fos is given as “significantly increased”. Also, the “expression level of c-Fos in the nodose ganglion” value with c-Fos is listed as “significantly increased”. Besides, the “cumulative liquid food intake (g)” value in the series on C57BL/6J male mice [3] (sham-operated group, up to 3 hours after administration) is “significantly suppressed”; in the series with C57BL/6J male mice [3] (subdiaphragmatic vagotomized group) it was “the effect was all lost”. Besides, the “hunger (VAS)” value with healthy subjects (5 g before breakfast, from immediately after breakfast up to after 4 hours) is “significantly suppressed”. In the series with healthy subjects (setting [9]), the “duration of effect of suppressing appetite (VAS)” value is at least 4 h. The “duration of effect of suppressing hunger (VAS)” value in the series on healthy subjects (setting [9]) is at least 4 h. Also, the “satiety after eating (VAS)” value with healthy subjects (setting [9]) is “sustained”. Moreover, the “time until return to the state before the ingestion” value in series [4] was 24 h. For the same compound, the “time until the effect is exhibited after the ingestion” value in series [4] was “about 15 minutes”. In addition, the “increase in blood glucose level after eating” value in series [5] (humans, 5 g ingested along with a regular meal (NPL 6, NPL 7)) is reported as “suppressed”. For the same compound, in series [5] (ingested alone (NPL 7)), the blood glucose level entry is reported as “does not increase”. Also, in series [5] (prediabetic adults, 5 g with breakfast versus 10 mg aspartame, crossover (NPL 6)), the “blood glucose level after eating” value is “significant decrease”. Further, in series [6], the “absorption in the small intestine” value is “slower”.
On to `[Cl-].[Li+]` [lithium chloride, reference compound], for which the “ratio of preference to the saccharin solution” value with C57BL/6J male mice [2] (intraperitoneal, 3 mmol/kg) is “significantly decreased”.
